Test results from ChEMBL document CHEMBL5104188, “Discovery and Characterization of Synthesized and FDA-Approved Inhibitors of Clostridial and Bacillary Collagenases” (J Med Chem, 2022).
Values after ≈ are worked out from the molar mass of the structure shown. Active and inactive are the calls of the source. The rule behind the calls is not given here.

Experiments:
HepG2 = test: Cytotoxicity against human HepG2 cells assessed as reduction in cell viability; assay type: functional, cell-based
[1] = target: T1, Collagenase ColG (Clostridium histolyticum) (UniProt Q9X721); test: Reversible inhibition of Clostridium histolyticum collagenase unit of ColG at 7.5 uM using quenched fluorescent FSI-1 as substrate incubated for 2 min by rapid dilution assay; conditions: Hathewaya histolytica
T1 sequence (whole entry): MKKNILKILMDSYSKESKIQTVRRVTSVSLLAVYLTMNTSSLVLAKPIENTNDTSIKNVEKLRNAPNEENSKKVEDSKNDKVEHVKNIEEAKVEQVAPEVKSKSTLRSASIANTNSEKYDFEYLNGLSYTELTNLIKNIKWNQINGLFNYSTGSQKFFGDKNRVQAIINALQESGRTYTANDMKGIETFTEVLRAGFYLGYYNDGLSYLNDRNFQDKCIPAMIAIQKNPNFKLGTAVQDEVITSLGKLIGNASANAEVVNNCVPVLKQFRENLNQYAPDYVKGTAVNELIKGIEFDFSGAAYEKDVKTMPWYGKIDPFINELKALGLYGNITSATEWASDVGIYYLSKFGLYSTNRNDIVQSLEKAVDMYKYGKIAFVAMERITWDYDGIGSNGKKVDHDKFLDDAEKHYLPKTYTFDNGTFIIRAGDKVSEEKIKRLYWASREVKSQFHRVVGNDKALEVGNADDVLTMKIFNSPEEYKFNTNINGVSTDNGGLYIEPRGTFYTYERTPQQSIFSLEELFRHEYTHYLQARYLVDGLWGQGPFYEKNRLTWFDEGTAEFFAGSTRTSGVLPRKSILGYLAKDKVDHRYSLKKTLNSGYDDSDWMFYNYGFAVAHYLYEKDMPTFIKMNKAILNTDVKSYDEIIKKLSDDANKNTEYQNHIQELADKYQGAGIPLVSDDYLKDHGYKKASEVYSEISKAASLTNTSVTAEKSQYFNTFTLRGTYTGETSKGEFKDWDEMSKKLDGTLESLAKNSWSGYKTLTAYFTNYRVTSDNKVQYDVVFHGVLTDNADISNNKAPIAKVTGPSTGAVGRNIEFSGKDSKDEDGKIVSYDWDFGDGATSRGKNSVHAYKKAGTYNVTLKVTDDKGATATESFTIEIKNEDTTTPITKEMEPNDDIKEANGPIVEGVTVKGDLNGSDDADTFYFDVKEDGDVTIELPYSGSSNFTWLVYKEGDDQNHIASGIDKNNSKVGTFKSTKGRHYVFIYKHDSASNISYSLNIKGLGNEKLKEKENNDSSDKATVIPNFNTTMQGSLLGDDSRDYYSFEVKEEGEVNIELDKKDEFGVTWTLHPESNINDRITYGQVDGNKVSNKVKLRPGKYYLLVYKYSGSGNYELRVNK

[2] = target: T2, Collagenase ColH (Hathewaya histolytica) (UniProt Q46085); test: Reversible inhibition of Clostridium histolyticum peptidase domain of ColH at 1.25 uM using quenched fluorescent FSI-1 as substrate incubated for 2 min by rapid dilution assay
T2 sequence (whole entry): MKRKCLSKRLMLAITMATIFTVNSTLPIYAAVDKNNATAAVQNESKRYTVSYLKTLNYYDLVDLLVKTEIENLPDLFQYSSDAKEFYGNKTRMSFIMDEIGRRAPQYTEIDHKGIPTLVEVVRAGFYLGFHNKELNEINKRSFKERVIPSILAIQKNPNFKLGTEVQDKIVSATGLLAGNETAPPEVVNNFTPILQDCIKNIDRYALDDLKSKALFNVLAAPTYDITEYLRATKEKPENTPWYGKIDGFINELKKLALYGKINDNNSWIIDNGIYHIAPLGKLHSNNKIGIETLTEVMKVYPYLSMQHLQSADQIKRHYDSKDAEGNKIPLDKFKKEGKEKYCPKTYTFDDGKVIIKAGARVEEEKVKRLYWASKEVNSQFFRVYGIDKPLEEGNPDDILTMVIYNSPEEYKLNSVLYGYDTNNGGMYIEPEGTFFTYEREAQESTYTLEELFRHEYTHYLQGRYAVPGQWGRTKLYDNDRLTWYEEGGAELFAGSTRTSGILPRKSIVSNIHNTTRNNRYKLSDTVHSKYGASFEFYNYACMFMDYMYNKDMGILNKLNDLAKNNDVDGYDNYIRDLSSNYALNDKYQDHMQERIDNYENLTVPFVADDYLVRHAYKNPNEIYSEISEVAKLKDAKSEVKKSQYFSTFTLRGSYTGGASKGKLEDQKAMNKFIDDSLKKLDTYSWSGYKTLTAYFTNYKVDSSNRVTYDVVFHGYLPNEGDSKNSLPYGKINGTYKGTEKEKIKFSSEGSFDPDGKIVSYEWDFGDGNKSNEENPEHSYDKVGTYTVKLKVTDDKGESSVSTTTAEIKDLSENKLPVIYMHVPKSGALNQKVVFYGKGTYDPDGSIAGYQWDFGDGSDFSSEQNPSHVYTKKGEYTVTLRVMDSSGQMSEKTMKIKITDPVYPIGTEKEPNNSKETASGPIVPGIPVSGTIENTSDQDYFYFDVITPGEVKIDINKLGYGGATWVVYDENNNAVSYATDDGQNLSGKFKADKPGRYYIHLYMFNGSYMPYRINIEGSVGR

NHDF [3] = test: Inhibition of Bacillus cereus collagenase infected in NHDF cells assessed as reduction in LDH release at > 100 uM incubated for 30 mins by LDH assay; assay type: cell-based
[4] = target: Collagenase ColA (Bacillus cereus) (UniProt Q81BJ6); test: Irreversible inhibition of Bacillus cereus collagenase unit ColA at 0.125 uM using quenched fluorescent FSI-1 as substrate incubated for 2 min by rapid dilution assay
Bacillus cereus [5] = test: In vivo inhibition of Bacillus cereus AH187 ColQ1 infected in Galleria mellonella larvae assessed as increase in survival rate at 100 uM incubated for 3 days; assay type: functional; conditions: AH187, 72 h, time 3 day
NHDF [6] = test: Inhibition of Bacillus cereus collagenase infected in NHDF cells assessed as fibrillar extra cellular matrix at > 100 uM incubated for 1 to 6 hrs by coomassie brilliant blue staining based SDS-PAGE analysis; assay type: cell-based; conditions: time 1-6 hrs
NHDF [7] = test: Inhibition of Bacillus cereus collagenase infected in NHDF cells assessed as protection of spindle shape morphology at > 100 uM incubated for 1 to 6 hrs by coomassie brilliant blue staining based SDS-PAGE analysis; assay type: cell-based; conditions: time 1-6 hrs
NHDF [8] = test: Inhibition of Bacillus cereus collagenase infected in NHDF cells assessed as suppression of gelatin lysis incubated for 1 to 6 hrs by coomassie brilliant blue staining based zymography analysis; assay type: cell-based; conditions: dose 12.5-100 µM, time 1-6 hrs
NHDF [9] = test: Inhibition of Bacillus cereus collagenase infected in NHDF cells assessed as prevention of cell detachment at 25 uM incubated for 1 to 6 hrs by coomassie brilliant blue staining based SDS-PAGE analysis; conditions: time 1-6 hrs
NHDF [10] = test: Inhibition of Bacillus cereus collagenase infected in NHDF cells assessed as protection of spindle shape morphology at > 50 uM incubated for 1 to 6 hrs by coomassie brilliant blue staining based SDS-PAGE analysis; assay type: cell-based; conditions: time 1-6 hrs
NHDF [11] = test: Inhibition of Bacillus cereus collagenase infected in NHDF cells assessed as reduction in LDH release at > 50 uM incubated for 30 mins by LDH assay; assay type: cell-based
NHDF [12] = test: Inhibition of Bacillus cereus collagenase infected in NHDF cells assessed as suppression of gelatin lysis at 100 uM incubated for 1 to 6 hrs by coomassie brilliant blue staining based zymography analysis; assay type: cell-based; conditions: time 1-6 hrs
NHDF [13] = test: Inhibition of Bacillus cereus collagenase infected in NHDF cells assessed as prevention of cell detachment at 25 to 100 uM incubated for 1 to 6 hrs by coomassie brilliant blue staining based SDS-PAGE analysis; conditions: dose 25-100 µM, time 1-6 hrs
NHDF [14] = test: Inhibition of Bacillus cereus collagenase infected in NHDF cells assessed as reduction in cell viability at 25 to 100 uM; assay type: cell-based; conditions: dose 25-100 µM
NHDF [15] = test: Inhibition of Bacillus cereus collagenase infected in NHDF cells assessed as reduction in cell viability at 100 uM; assay type: cell-based
NHDF [16] = test: Inhibition of Bacillus cereus collagenase infected in NHDF cells assessed as prevention of cell detachment at 100 uM incubated for 1 to 6 hrs by coomassie brilliant blue staining based SDS-PAGE analysis; conditions: time 1-6 hrs
Collagenase ColH [17] = target: T3, Collagenase ColH (Hathewaya histolytica, UniProt Q46085); test: Inhibition of Clostridium histolyticum CoLH using M MOCAcPro-Leu-Gly-Leu-A2pr-(DNP)Ala-Arg-NH2 as substrate incubated for 10 mins by fluorescence spectrophotometer analysis
T3 sequence (Q46085 whole entry): T2 sequence (whole entry)

[18] = target: 72 kDa type IV collagenase (Homo sapiens, UniProt P08253); test: Inhibition of human MMP-2 assessed as inhibition constant using AcProLeuGly-S-LeuLeuGlyOEt as substrate by spectrophotometer analysis
Neutrophil collagenase = Neutrophil collagenase (Homo sapiens, UniProt P22894); test: Inhibition of human MMP-8 assessed as inhibition constant using AcProLeuGly-S-LeuLeuGlyOEt as substrate by spectrophotometer analysis
[19] = Stability of compound in DMEM medium at 200 uM incubated for 2 hrs by LC-MS analysis; assay type: physicochemical
[20] = target: Collagenase ColA (Bacillus cereus) (UniProt Q81BJ6); test: Reversible inhibition of Bacillus cereus collagenase unit ColA at 4.375 uM using quenched fluorescent FSI-1 as substrate incubated for 2 min by rapid dilution assay
Bacillus cereus [21] = test: Antibacterial activity against Bacillus cereus AH187 assessed as minimal inhibitory concentration incubated for 48 hrs microplate reader analysis; assay type: functional
Bacillus cereus [22] = test: In vivo inhibition of Bacillus cereus AH187 ColQ1 infected in Galleria mellonella larvae assessed as increase in survival rate at 200 uM incubated for 3 days; assay type: functional; conditions: AH187, 72 h, time 3 day
NHDF [23] = test: Inhibition of Bacillus cereus collagenase infected in NHDF cells assessed as suppression of gelatin lysis at 200 uM incubated for 1 to 6 hrs by coomassie brilliant blue staining based zymography analysis; assay type: cell-based; conditions: time 1-6 hrs
Collagenase ColH [24] = target: T3, Collagenase ColH; test: Inhibition of Clostridium histolyticum CoLH assessed as inhibition constant using M MOCAcPro-Leu-Gly-Leu-A2pr-(DNP)Ala-Arg-NH2 as substrate incubated for 10 mins by fluorescence spectrophotometer analysis
[25] = target: Collagenase ColQ1 (Bacillus cereus) (UniProt B9J3S4); test: Inhibition of full length Bacillus cereus ColQ1 assessed as reduction in Col 1 cleavage at 1.5 to 12.5 uM incubated for 3 hrs by SDS-PAGE analysis; conditions: dose 1.5-12.5 µM
[26] = target: Collagenase ColQ1 (Bacillus cereus) (UniProt B9J3S4); conditions: dose 100.0 µM, time 144.0 sec
Collagenase ColH [27] = target: T3, Collagenase ColH; test: Inhibition of Clostridium histolyticum CoLH

Sequence of Collagenase ColA (Bacillus cereus) (Q81BJ6 whole entry): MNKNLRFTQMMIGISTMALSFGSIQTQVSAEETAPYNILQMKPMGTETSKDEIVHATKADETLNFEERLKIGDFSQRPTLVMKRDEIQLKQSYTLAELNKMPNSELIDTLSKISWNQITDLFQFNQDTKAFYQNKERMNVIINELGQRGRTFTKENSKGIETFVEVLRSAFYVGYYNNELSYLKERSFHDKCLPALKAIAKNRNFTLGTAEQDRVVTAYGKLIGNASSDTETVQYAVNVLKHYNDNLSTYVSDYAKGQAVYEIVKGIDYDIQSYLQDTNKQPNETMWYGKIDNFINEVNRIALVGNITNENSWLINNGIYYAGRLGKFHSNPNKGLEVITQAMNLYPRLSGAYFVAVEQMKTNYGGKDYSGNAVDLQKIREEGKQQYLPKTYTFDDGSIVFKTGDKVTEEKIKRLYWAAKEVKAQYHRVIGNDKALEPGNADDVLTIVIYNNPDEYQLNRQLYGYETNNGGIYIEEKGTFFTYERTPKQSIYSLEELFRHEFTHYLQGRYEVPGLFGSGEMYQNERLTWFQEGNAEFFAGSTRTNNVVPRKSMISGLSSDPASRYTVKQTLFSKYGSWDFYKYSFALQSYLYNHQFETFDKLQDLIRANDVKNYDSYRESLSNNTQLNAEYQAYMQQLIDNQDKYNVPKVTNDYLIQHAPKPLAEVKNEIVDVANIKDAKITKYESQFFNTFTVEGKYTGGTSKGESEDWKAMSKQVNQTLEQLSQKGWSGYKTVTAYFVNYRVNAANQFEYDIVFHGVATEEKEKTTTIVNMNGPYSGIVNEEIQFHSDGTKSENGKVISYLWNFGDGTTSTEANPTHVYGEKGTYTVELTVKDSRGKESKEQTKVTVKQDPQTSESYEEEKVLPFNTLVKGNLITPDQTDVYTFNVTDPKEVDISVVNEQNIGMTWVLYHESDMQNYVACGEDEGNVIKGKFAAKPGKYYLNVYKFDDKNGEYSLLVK
Sequence of Collagenase ColQ1 (Bacillus cereus) (B9J3S4 whole entry): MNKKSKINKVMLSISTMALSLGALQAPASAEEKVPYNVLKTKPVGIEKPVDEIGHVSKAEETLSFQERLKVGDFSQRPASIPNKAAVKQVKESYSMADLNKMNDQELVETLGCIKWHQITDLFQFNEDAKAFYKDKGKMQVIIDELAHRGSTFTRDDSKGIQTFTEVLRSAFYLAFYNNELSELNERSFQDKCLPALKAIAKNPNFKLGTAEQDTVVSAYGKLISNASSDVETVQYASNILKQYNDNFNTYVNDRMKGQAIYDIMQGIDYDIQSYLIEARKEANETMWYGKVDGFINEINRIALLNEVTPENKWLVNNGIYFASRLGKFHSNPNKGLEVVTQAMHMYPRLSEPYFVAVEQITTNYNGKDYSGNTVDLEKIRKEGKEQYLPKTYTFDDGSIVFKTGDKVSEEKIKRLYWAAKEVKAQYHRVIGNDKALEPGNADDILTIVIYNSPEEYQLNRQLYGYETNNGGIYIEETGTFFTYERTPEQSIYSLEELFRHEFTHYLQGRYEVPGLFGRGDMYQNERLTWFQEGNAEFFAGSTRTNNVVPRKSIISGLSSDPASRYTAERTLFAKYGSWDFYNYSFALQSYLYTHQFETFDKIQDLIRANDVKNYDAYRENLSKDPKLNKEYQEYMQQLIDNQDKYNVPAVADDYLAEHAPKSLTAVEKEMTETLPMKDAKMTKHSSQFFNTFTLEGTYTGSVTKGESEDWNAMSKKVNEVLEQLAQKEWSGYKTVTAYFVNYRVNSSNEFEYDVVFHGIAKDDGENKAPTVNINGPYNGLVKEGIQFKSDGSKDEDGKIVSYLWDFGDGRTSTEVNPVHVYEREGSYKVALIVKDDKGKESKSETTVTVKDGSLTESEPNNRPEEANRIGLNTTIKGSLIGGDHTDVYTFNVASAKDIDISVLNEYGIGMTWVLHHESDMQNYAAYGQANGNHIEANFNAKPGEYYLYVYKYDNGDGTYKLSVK
Sequence of 72 kDa type IV collagenase (P08253 whole entry): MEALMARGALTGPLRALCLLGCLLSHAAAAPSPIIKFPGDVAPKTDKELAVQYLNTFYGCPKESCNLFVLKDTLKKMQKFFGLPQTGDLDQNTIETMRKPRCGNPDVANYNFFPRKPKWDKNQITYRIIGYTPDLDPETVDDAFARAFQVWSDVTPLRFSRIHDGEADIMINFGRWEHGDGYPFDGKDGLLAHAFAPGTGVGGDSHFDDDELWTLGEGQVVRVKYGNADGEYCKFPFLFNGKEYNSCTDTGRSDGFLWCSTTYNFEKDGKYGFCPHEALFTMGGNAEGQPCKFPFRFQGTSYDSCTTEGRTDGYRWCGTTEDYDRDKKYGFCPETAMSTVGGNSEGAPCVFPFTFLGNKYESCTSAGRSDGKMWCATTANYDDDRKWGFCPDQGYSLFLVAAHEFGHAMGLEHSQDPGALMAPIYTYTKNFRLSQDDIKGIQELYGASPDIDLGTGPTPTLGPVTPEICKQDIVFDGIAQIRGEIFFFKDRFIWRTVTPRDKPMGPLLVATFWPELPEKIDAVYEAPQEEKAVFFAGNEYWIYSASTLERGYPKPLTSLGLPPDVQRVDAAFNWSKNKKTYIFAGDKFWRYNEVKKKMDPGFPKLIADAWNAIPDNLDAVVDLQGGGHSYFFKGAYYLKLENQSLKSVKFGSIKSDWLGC
Sequence of Neutrophil collagenase (P22894 whole entry): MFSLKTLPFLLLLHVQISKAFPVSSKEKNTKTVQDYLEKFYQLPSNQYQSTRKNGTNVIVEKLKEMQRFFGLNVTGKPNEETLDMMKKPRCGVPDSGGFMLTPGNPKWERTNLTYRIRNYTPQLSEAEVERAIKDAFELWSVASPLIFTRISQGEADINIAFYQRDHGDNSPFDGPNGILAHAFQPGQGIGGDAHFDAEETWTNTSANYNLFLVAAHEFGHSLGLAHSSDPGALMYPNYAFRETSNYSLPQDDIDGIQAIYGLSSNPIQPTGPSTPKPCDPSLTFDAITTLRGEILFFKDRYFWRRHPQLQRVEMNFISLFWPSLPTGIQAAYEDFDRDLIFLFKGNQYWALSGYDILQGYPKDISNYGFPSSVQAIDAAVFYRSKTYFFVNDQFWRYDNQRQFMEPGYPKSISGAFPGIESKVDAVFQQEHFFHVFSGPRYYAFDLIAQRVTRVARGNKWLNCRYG

Structure (SMILES): O=P(O)(O)c1nc2ccc(-c3ccc(Cl)cc3)cc2nc1P(=O)(O)O
- IC50 (HepG2): > 100000 nM
- inhibition [1]: Active
- inhibition [2]: Active
- inhibition (NHDF [3]): Active
- inhibition [4]: Active
- inhibition in vivo at 100 µM (Bacillus cereus [5]): 35%
- inhibition (NHDF [6]): Active
- inhibition (NHDF [7]): Active
- inhibition (NHDF [8]): Active

Structure (SMILES): O=C(Nc1ccc(Cl)c(Cl)c1)c1ccc2nc(P(=O)(O)O)c(P(=O)(O)O)nc2c1
- IC50 (HepG2): > 100000 nM
- inhibition (NHDF [9]): Active
- inhibition (NHDF [10]): Active
- inhibition (NHDF [11]): Active
- inhibition (NHDF [12]): Active
- inhibition in vivo at 100 µM (Bacillus cereus [5]): 50%

Structure (SMILES): Cc1ccc2nc(P(=O)(O)O)c(P(=O)(O)O)nc2c1
- inhibition (NHDF [13]): Active
- inhibition (NHDF [12]): Active
- inhibition (NHDF [14]): Active

Structure (SMILES): O=P(O)(O)c1nc2ccc(Br)cc2nc1P(=O)(O)O
- inhibition (NHDF [15]): Active
- inhibition (NHDF [12]): Active
- inhibition (NHDF [16]): Active

Structure (SMILES): O=C(O)CN(CC1c2ccccc2C=Cc2ccccc21)C(=O)NS(=O)(=O)c1ccc(F)cc1
- IC50 (Collagenase ColH [17]): 21 nM
- Ki [18]: 9 nM
- Ki (Neutrophil collagenase): 13 nM

Structure (SMILES): COc1cc2ccc(=O)oc2cc1OC [SCOPARONE]
- IC50 (Collagenase ColH [17]): 24 nM

Structure (SMILES): CC(=O)Nc1ccccc1OCc1cn(CCNC(=O)C(CC(C)C)C(=O)NO)nn1 (centres undefined)
- Stability [19]: Stable
- IC50 (HepG2): > 100000 nM
- inhibition [20]: Active
- inhibition [1]: Active
- inhibition [2]: Active

Structure (SMILES): O=P(O)(O)C(Sc1ccc(Cl)cc1)P(=O)(O)O
- inhibition (NHDF [3]): Active
- inhibition (NHDF [6]): Active
- inhibition (NHDF [7]): Active

Structure (SMILES): O=P(O)(O)c1nc2cc(Cl)c(Cl)cc2nc1P(=O)(O)O
- inhibition (NHDF [9]): Active
- MIC50 (Bacillus cereus [21]): 100 µM (≈ 35.9 µg/mL)
- inhibition (NHDF [10]): Active
- inhibition (NHDF [11]): Active
- inhibition in vivo at 200 µM (Bacillus cereus [22]): 35%
- inhibition [1]: Active
- inhibition [2]: Active
- inhibition [4]: Active
- inhibition (NHDF [23]): Active

Structure (SMILES): NCCCC(O)(P(=O)(O)O)P(=O)(O)O
- inhibition (NHDF [3]): Active
- inhibition (NHDF [6]): Active
- inhibition (NHDF [7]): Active
- inhibition (NHDF [23]): Active

Structure (SMILES): CC(=O)Nc1ccccc1OCc1cn(CCNC(=O)C(Cc2ccccc2)C(=O)NO)nn1 (centres undefined)
- inhibition [20]: Active
- inhibition [1]: Active
- inhibition [2]: Active

Structure (SMILES): CC(NC(=O)C(Cc1ccccc1)NC(=O)NS(=O)(=O)c1ccc(F)cc1)C(=O)Nc1nnc(S)s1 (centres undefined)
- Ki (Collagenase ColH [24]): 200 nM

Structure (SMILES): O=P(O)(O)c1nc2ccccc2nc1P(=O)(O)O
- inhibition [25]: Active

Structure (SMILES): O=P(O)(O)c1nc2ccc(F)cc2nc1P(=O)(O)O
- inhibition [26]: < 5%

Structure (SMILES): CCOP(=O)(OCC)c1nc2ccc(OC)cc2nc1P(=O)(OCC)OCC
- inhibition [26]: < 5%

Structure (SMILES): CC(=O)c1ccc(NC(=O)CSC(N)=O)cc1
- IC50 (Collagenase ColH [27]): 10 nM
